TGI and GI50 data for twelve molecules are collected here from PubChem BioAssay (NCI).

Test systems include OVCAR-8 ovarian; NCI-H460 lung; SK-MEL-5 melanoma; HCC-2998 colon; SF-295 CNS; MOLT-4 leukemia; UO-31 renal; COLO 205 colon; UACC-257 melanoma; NCI-H522 lung.
Assay in all cases: DTP human tumour cell line panel, 48 h

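Growth conditions: 96-well plates. Treatment: test compound, 48 hours, 5 concentrations. Analysis: linear interpolation between bracketing concentrations; unreached endpoints set to highest concentration. GI50 is the concentration that inhibits growth by half. TGI: concentration producing complete growth inhibition.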

In general, TGI refers to the concentration at which net growth stops. A higher TGI goes with less potent growth arrest. A word on the GI50: it is the concentration giving 50% growth inhibition.

Take `CCOC(=O)N1C2C=C(C)C(C3C(C)C(=O)N31)N(C(=O)c1ccccc1)O2` (stereo not given): the TGI with OVCAR-8 ovarian, in the test on NCI-H460 lung, in the test on SK-MEL-5 melanoma, in the test on HCC-2998 colon, with SF-295 CNS and with MOLT-4 leukemia was greater than 100 µM throughout. Moreover, the TGI in the test with UO-31 renal, with COLO 205 colon and in the test with UACC-257 melanoma was greater than 100 µM in each case.

`Nc1nc(OCc2ccccc2)nc2[nH]ncc12`: the GI50 is greater than 100 µM with OVCAR-8 ovarian; 24 µM in the test with NCI-H460 lung; 25.5 µM in the test with NCI-H522 lung; 14.9 µM in the test on SK-MEL-5 melanoma; 16.9 µM in the test on SF-295 CNS; 24.3 µM in the test on MOLT-4 leukemia. Also, the values for the GI50 with UO-31 renal, in the test on COLO 205 colon and with UACC-257 melanoma were 20 µM, 18.5 µM and 19 µM, respectively. In addition, the TGI is greater than 100 µM in the test on OVCAR-8 ovarian; 88.8 µM with NCI-H460 lung; greater than 100 µM with NCI-H522 lung; 28.3 µM in the test on SK-MEL-5 melanoma; 31.1 µM in the test with SF-295 CNS; greater than 100 µM in the test on MOLT-4 leukemia. The TGI is greater than 100 µM in the test on UO-31 renal, 40.4 µM in the test on COLO 205 colon and 37.1 µM in the test with UACC-257 melanoma.

For `CSc1nc(-c2ccccc2)c2c(n1)-c1ccccc1CC2`, the TGI in the test with OVCAR-8 ovarian, in the test on NCI-H460 lung, with NCI-H522 lung, in the test with SK-MEL-5 melanoma, with SF-295 CNS and in the test with MOLT-4 leukemia was greater than 100 µM in each case. The TGI in the test with UO-31 renal, in the test with COLO 205 colon and in the test with UACC-257 melanoma was greater than 100 µM each time.

On to `CCOc1ccc(NC(=O)CC2SC(N)=NC2=O)cc1` (stereo not given), for which the TGI in the test with OVCAR-8 ovarian, with NCI-H460 lung, in the test with SK-MEL-5 melanoma, with HCC-2998 colon, with SF-295 CNS and with MOLT-4 leukemia was greater than 100 µM each time. Besides, the TGI with UO-31 renal, in the test on COLO 205 colon and in the test on UACC-257 melanoma was greater than 100 µM in each case.

Turning to `COc1cc(Oc2c(O)c(C)c(OC)c(C(C)=O)c2O)c(C(C)=O)c(O)c1C`, the TGI is greater than 100 µM in the test with OVCAR-8 ovarian; greater than 100 µM with NCI-H460 lung; 77.9 µM with NCI-H522 lung; greater than 100 µM in the test on SK-MEL-5 melanoma; greater than 100 µM in the test with HCC-2998 colon; greater than 100 µM in the test on SF-295 CNS. Moreover, the TGI with UO-31 renal, in the test with COLO 205 colon and in the test with UACC-257 melanoma was greater than 100 µM each time.

For `Cn1cc(-c2ccc3c(c2)CCN3C(=O)Cc2cccc(C(F)(F)F)c2)c2c(N)ncnc21`, the GI50 with OVCAR-8 ovarian is 4.47 µM; with NCI-H460 lung it was 3.85 µM; in the test on NCI-H522 lung, 10.1 µM; in the test with HCC-2998 colon, 13.1 µM; with SF-295 CNS it was 8.08 µM; in the test with MOLT-4 leukemia it was 3.55 µM. Further, the GI50 was 0.673 µM with UO-31 renal, 4.23 µM in the test with COLO 205 colon and 5.37 µM in the test on UACC-257 melanoma. Further, the TGI in the test on OVCAR-8 ovarian was 40.5 µM; in the test with NCI-H460 lung, 19.7 µM; in the test with NCI-H522 lung, 29 µM; in the test on HCC-2998 colon it was 28.4 µM; in the test with SF-295 CNS, 25.3 µM; in the test with MOLT-4 leukemia, 18.6 µM. The TGI with UO-31 renal came to 14.3 µM; with COLO 205 colon it was 17.9 µM; in the test with UACC-257 melanoma, 24.3 µM.

As to `CC[CH2][Pb]([CH2]CC)([CH2]CC)[NH]S(=O)(=O)c1ccc(C)cc1`, the GI50 with NCI-H460 lung was 0.137 µM; with SK-MEL-5 melanoma, 0.0555 µM; in the test on HCC-2998 colon it was 0.0727 µM; in the test with SF-295 CNS, 0.0898 µM; in the test with MOLT-4 leukemia, 0.0746 µM; in the test on UO-31 renal it was 0.143 µM. For the same molecule, the values for the GI50 in the test on COLO 205 colon and in the test on UACC-257 melanoma were 0.0236 µM and 0.0773 µM, respectively. Moreover, the TGI with NCI-H460 lung was 0.277 µM; in the test with SK-MEL-5 melanoma it was 0.142 µM; with HCC-2998 colon, 0.2 µM; in the test on SF-295 CNS, 0.203 µM; in the test with MOLT-4 leukemia, 4.51 µM; in the test on UO-31 renal it was 0.274 µM. The TGI in the test on COLO 205 colon was 0.0528 µM; in the test with UACC-257 melanoma it was 0.245 µM.

As to `N#Cc1ccccc1NC(=O)c1ccccc1`, the TGI in the test on OVCAR-8 ovarian, with NCI-H460 lung, with SK-MEL-5 melanoma, with SF-295 CNS, with COLO 205 colon and in the test on UACC-257 melanoma was greater than 100 µM in each case.

`FC(F)(F)C12C34C=CC5(CCC6(C=CC1(CC3)O6)C52C(F)(F)F)O4` (stereo not given): the TGI in the test with OVCAR-8 ovarian, in the test with NCI-H460 lung, in the test with NCI-H522 lung, in the test with HCC-2998 colon, in the test with SF-295 CNS and with MOLT-4 leukemia was greater than 100 µM each time. The TGI with COLO 205 colon and with UACC-257 melanoma was greater than 100 µM each time.

With `O=C(O)c1c[nH]cc1C(=O)O`, the TGI with OVCAR-8 ovarian, with NCI-H460 lung, in the test with NCI-H522 lung, in the test on SK-MEL-5 melanoma, in the test with SF-295 CNS and in the test on MOLT-4 leukemia was greater than 100 µM each time. Moreover, the TGI with UO-31 renal, in the test on COLO 205 colon and with UACC-257 melanoma was greater than 100 µM each time.

Take `Cc1cn2c(/C=N/N/C(N)=N\N)c(-c3ccc(Cl)c([N+](=O)[O-])c3)nc2s1`: the GI50 in the test on NCI-H522 lung was 4.58 µM; with SK-MEL-5 melanoma, 4.29 µM; in the test with SF-295 CNS, 0.891 µM; in the test on UO-31 renal it was 9.45 µM; in the test with UACC-257 melanoma, 1.41 µM. Besides, the TGI amounted to 32.1 µM in the test on NCI-H522 lung; 16.4 µM in the test on SK-MEL-5 melanoma; 1.8 µM in the test with SF-295 CNS; 22.5 µM with UO-31 renal; 4.87 µM in the test with UACC-257 melanoma.

On to `O=C(Nc1cc(Cl)c(Cl)cc1Cl)C(=O)C(C(=O)c1ccc(Cl)c(Cl)c1)C1OC(=O)c2ccccc21` (stereo not given), for which the TGI was 28.5 µM in the test with OVCAR-8 ovarian; 10.8 µM with NCI-H460 lung; 23.3 µM with NCI-H522 lung; 33.6 µM in the test on HCC-2998 colon; 36.6 µM with SF-295 CNS; greater than 100 µM in the test on MOLT-4 leukemia. Besides, the TGI worked out at 30.6 µM with UO-31 renal, 33.8 µM in the test on COLO 205 colon and 27.5 µM in the test on UACC-257 melanoma.
